Legend:
Format in all cases: cell-based, human
[1] = tested on: HN31 Head and Neck Cancer cell line; assay: MTT assay, Bouvardin with ionizing radiation, HN31 (treated on the same day); details: HN31 cells
Experimental: (§1) “Combination Index” computation. Combination Indices were calculated using CalcuSyn software (Biosoft), which uses the method of Chou and Talalay. This method first computes drug-induced effect using the Hill Equation: where E is the measured effect; C is the drug concentration; Emax is the full range of drug effect, usually at or near 100%; IC50 is the drug concentration producing the median effect of 50%; and n is the curve shape parameter describing the steepness of the concentration-effect relationship. The Chou and Talalay method then linearizes the Hill Equation by logarithmic transformation as: where fu is the fraction of cells left unaffected after drug exposure, fa is the fraction of cells affected by the exposure, C is the drug concentration used, Cm is the concentration to achieve the median effect, and n is the curve shape parameter. Cm and n are equivalent to IC50 and n, respectively, in the Hill Equation. The values of n (obtained from the slope), nlog(Cm) (obtained from the absolute value of the intercept), and, therefore, Cm are obtained by plotting log(fu−1−1) versus log(C). These numbers are then used to compute the Combination Index (CI) according to the formula: CI=(D)1/(Dx)1+(D)2/(Dx)2 (26). (Dx)1 and (Dx)2 are the doses required to achieve a given effect level for each treatment, i.e. a specified value of Fraction Affected or Fa. (D)1 and (D)2 are the doses of each treatment in a given combination which gives the same Fa.
(§2) The growth inhibitory effects of Bouvardin with ionizing radiation (IR) were evaluated using a modified tetrazolium salt (MTT) assay. In the MTT assay, 1,000 to 2,000 viable cells were plated in 100 uL of growth medium in 96-well plates (Corning, Ithaca, N.Y.). Following an overnight incubation, drug was added in varying concentrations and the plates were irradiated on the same day (co-treatment) or 24 hr later (pre-treatment) and incubated for 6 to 7 days. The tetrazolium salt was added at a concentration of 0.4 mg/mL to each well following the 6- to 7-day treatment. The plates were incubated with the salt for 4 hours at 37° C. At 4 hours, the medium was aspirated off, leaving the dark blue formazan product at the bottom of the wells. The reduced MTT product was solubilized by adding […] of 0.2 N HCl in 75% isopropanol, 23% MilliQ water to each well. Thorough mixing was done using a Titertek multichannel pipetman. The absorbency of each well was measured using an automated plate reader (Molecular Devices, Sunnyvale, Calif.). All experiments were done in triplicate.
MTT assays were used to determine the effect of Bouvardin (concentrations in uM) in combination with ionizing radiation (in Gy, X-axis). FIG. 14 depicts CI values for Bouvardin and radiation on 3 cell lines. Combination Index data from 3 different Head and Neck Cancer cell lines are shown. Black dashed lines represent a CI value of 1. CI values below 1 indicate synergy. 1586 and UM-SCC19 were pre-treated whereas HN31 was treated on the same day.

FaDu cells = assay: MTT assay, Bouvardin with ionizing radiation, FaDu (same-day treatment)
Experimental: as §1
For FIG. 19 MTT assays were used to determine the effect of Bouvardin (concentrations in uM) in combination with ionizing radiation (in Gy). The data from same-day treatment of IR and Bouvardin are shown, for comparison with taxol-Bouvardin combination that were also applied on the same day. In general, CI values were lower for FaDu cells than for Det562 cells in two separate experiments (only one set is shown). On Det562 cells, CI values were about 1 for most combinations. CI value for Det562 cells at 0.001 uM/1Gy and at >0.06 uM are not included in the graph because the values are >10 and would have made smaller values harder to see. On FaDu cells, CI values were below 1 at concentrations of 0.03 or lower, were about 1 for 0.06 uM drug, and were over 1 at higher concentrations.
as §2

[2] = tested on: head and neck squamous cell carcinola line (UMSCC2B); assay: MTT assay, bouvardin with radiation, UMSCC2B; details: over a wide range of concentrations
Experimental: MTT assays were used to test the effects of bouvardin alone and in combination with radiation on numerous cell lines. Bouvardin and radiation synergize in non-small cell lung cancer cell line (H157) and head and neck squamous cell carcinola line (UMSCC2B) over a wide range of concentrations between bouvardin and radiation. FIG. 8 depicts this synergy in these two cell lines. The efficiency of bouvardin in sensitizing cancer cells to radiation is measured in terms of Combination Index (CI) as determined by Calcusyn software. CI values are either above, below or equal to 1, indicating antagonizing, synergistic or additive effects respectively. “Gy” in FIG. 8 stands for “Gray,” a radiation unit.
The growth inhibitory effects of Bouvardin with ionizing radiation (IR) were evaluated using a modified tetrazolium salt (MTT) assay. In the MTT assay, 1,000 to 2,000 viable cells were plated in 100 uL of growth medium in 96-well plates (Corning, Ithaca, N.Y.). Following an overnight incubation, drug was added in varying concentrations and the plates were irradiated on the same day (co-treatment) or 24 hr later (pre-treatment) and incubated for 6 to 7 days. The tetrazolium salt was added at a concentration of 0.4 mg/mL to each well following the 6- to 7-day treatment. […] The absorbency of each well was measured using an automated plate reader (Molecular Devices, Sunnyvale, Calif.). […]

Structure (SMILES): COc1ccc(C[C@H]2C(=O)N[C@H](C)C(=O)N(C)[C@@H]3C(=O)N(C)[C@@H](Cc4ccc(O)c(c4)Oc4ccc(cc4)[C@H]3O)C(=O)N[C@@H](C)C(=O)N[C@H](C)C(=O)N2C)cc1 (stereo in doubt) [Bouvardin, bouvardin]
- Combination Index ([1]; Bouvardin 0.001 uM + 1 Gy IR): 4.673
- Fraction Affected ([1]; Bouvardin 0.001 uM + 1 Gy IR): 0.165
- Combination Index ([1]; Bouvardin 0.001 uM + 2 Gy IR): 1.605
- Fraction Affected ([1]; Bouvardin 0.001 uM + 2 Gy IR): 0.292
- Combination Index ([1]; Bouvardin 0.001 uM + 4 Gy IR): 0.989
- Fraction Affected ([1]; Bouvardin 0.001 uM + 4 Gy IR): 0.478
- Combination Index ([1]; Bouvardin 0.003 uM + 1 Gy IR): 1.405
- Fraction Affected ([1]; Bouvardin 0.003 uM + 1 Gy IR): 0.362
- Combination Index ([1]; Bouvardin 0.003 uM + 2 Gy IR): 0.877
- Fraction Affected ([1]; Bouvardin 0.003 uM + 2 Gy IR): 0.463
- Combination Index ([1]; Bouvardin 0.003 uM + 4 Gy IR): 0.93
- Fraction Affected ([1]; Bouvardin 0.003 uM + 4 Gy IR): 0.535
- Combination Index ([1]; Bouvardin 0.006 uM + 1 Gy IR): 0.462
- Fraction Affected ([1]; Bouvardin 0.006 uM + 1 Gy IR): 0.574
- Combination Index ([1]; Bouvardin 0.006 uM + 2 Gy IR): 0.517
- Fraction Affected ([1]; Bouvardin 0.006 uM + 2 Gy IR): 0.602
- Combination Index ([1]; Bouvardin 0.006 uM + 4 Gy IR): 1.005
- Fraction Affected ([1]; Bouvardin 0.006 uM + 4 Gy IR): 0.559
- Combination Index ([1]; Bouvardin 0.01 uM + 1 Gy IR): 0.401
- Fraction Affected ([1]; Bouvardin 0.01 uM + 1 Gy IR): 0.731
- Combination Index ([1]; Bouvardin 0.01 uM + 2 Gy IR): 0.419
- Fraction Affected ([1]; Bouvardin 0.01 uM + 2 Gy IR): 0.747
- Combination Index ([1]; Bouvardin 0.01 uM + 4 Gy IR): 0.657
- Fraction Affected ([1]; Bouvardin 0.01 uM + 4 Gy IR): 0.73
- Combination Index ([1]; Bouvardin 0.03 uM + 1 Gy IR): 0.565
- Fraction Affected ([1]; Bouvardin 0.03 uM + 1 Gy IR): 0.753
- Combination Index ([1]; Bouvardin 0.03 uM + 2 Gy IR): 0.471
- Fraction Affected ([1]; Bouvardin 0.03 uM + 2 Gy IR): 0.782
- Combination Index ([1]; Bouvardin 0.03 uM + 4 Gy IR): 1.099
- Fraction Affected ([1]; Bouvardin 0.03 uM + 4 Gy IR): 0.717
- Combination Index ([1]; Bouvardin 0.06 uM + 1 Gy IR): 0.663
- Fraction Affected ([1]; Bouvardin 0.06 uM + 1 Gy IR): 0.778
- Combination Index ([1]; Bouvardin 0.06 uM + 2 Gy IR): 0.673
- Fraction Affected ([1]; Bouvardin 0.06 uM + 2 Gy IR): 0.785
- Combination Index ([1]; Bouvardin 0.06 uM + 4 Gy IR): 1.086
- Fraction Affected ([1]; Bouvardin 0.06 uM + 4 Gy IR): 0.756
- Combination Index ([1]; Bouvardin 0.1 uM + 1 Gy IR): 0.97
- Fraction Affected ([1]; Bouvardin 0.1 uM + 1 Gy IR): 0.825
- Combination Index ([1]; Bouvardin 0.1 uM + 2 Gy IR): 1.673
- Fraction Affected ([1]; Bouvardin 0.1 uM + 2 Gy IR): 0.789
- Combination Index ([1]; Bouvardin 0.1 uM + 4 Gy IR): 1.914
- Fraction Affected ([1]; Bouvardin 0.1 uM + 4 Gy IR): 0.784
- Combination Index ([1]; Bouvardin 0.3 uM + 1 Gy IR): 1.563
- Fraction Affected ([1]; Bouvardin 0.3 uM + 1 Gy IR): 0.837
- Combination Index ([1]; Bouvardin 0.3 uM + 2 Gy IR): 1.911
- Fraction Affected ([1]; Bouvardin 0.3 uM + 2 Gy IR): 0.826
- Combination Index ([1]; Bouvardin 0.3 uM + 4 Gy IR): 2.897
- Fraction Affected ([1]; Bouvardin 0.3 uM + 4 Gy IR): 0.8
- Combination Index ([1]; Bouvardin 0.6 uM + 1 Gy IR): 2.067
- Fraction Affected ([1]; Bouvardin 0.6 uM + 1 Gy IR): 0.85
- Combination Index ([1]; Bouvardin 0.6 uM + 2 Gy IR): 2.148
- Fraction Affected ([1]; Bouvardin 0.6 uM + 2 Gy IR): 0.849
- Combination Index ([1]; Bouvardin 0.6 uM + 4 Gy IR): 4.862
- Fraction Affected ([1]; Bouvardin 0.6 uM + 4 Gy IR): 0.797
- Combination Index ([1]; Bouvardin 1 uM + 1 Gy IR): 4.673
- Fraction Affected ([1]; Bouvardin 1 uM + 1 Gy IR): 0.165
- Combination Index ([1]; Bouvardin 1 uM + 2 Gy IR): 1.605
- Fraction Affected ([1]; Bouvardin 1 uM + 2 Gy IR): 0.292
- Combination Index ([1]; Bouvardin 1 uM + 4 Gy IR): 0.989
- Fraction Affected ([1]; Bouvardin 1 uM + 4 Gy IR): 0.478
- Bouvardin concentrations at which synergy was seen when combined with radiation (FaDu cells; Det562 and FaDu (FIG. 19)): lower than 0.06 μM
- interaction of Bouvardin with IR (FaDu cells; FaDu): a wide range of effects, synergistic to antagonistic
- CI values, Bouvardin with IR (FaDu cells; FaDu, 0.06 uM drug): about 1
- CI values, Bouvardin with IR (FaDu cells; FaDu, concentrations higher than 0.06 uM): over 1
- CI values, Bouvardin with IR (FaDu cells; FaDu, concentrations of 0.03 or lower): below 1
- interaction of Bouvardin with radiation [2]: synergize
